From ChEMBL document CHEMBL4359849, “Bioisosteric ferrocenyl aminoquinoline-benzimidazole hybrids: Antimicrobial evaluation and mechanistic insights” (Eur J Med Chem, 2019)

Key:
Plasmodium falciparum [1] = assay: Antiplasmodial activity against chloroquine-sensitive asexual blood stage of Plasmodium falciparum NF54 by LDH assay; assay type: functional, organism-based
[2] = system: Mycobacterium tuberculosis; assay: Antimycobacterial activity against Mycobacterium tuberculosis H37Rv after 7 days in presence of middlebrook 7H9/CAS medium by microplate alamar blue assay; assay type: functional; settings: 168 h
[3] = system: Mycobacterium tuberculosis; assay: Antimycobacterial activity against Mycobacterium tuberculosis H37Rv after 14 days in presence of middlebrook 7H9/ADC medium by broth microdilution method; assay type: functional; settings: 336 h
Plasmodium falciparum [4] = assay: Antiplasmodial activity against chloroquine-resistant asexual blood stage of Plasmodium falciparum K1 by LDH assay; assay type: functional, organism-based
[5] = system: Mycobacterium tuberculosis; assay: Antimycobacterial activity against Mycobacterium tuberculosis H37Rv after 14 days in presence of middlebrook 7H9/CAS medium by broth microdilution method; assay type: functional; settings: 336 h
[6] = Resistance index, ratio of IC50 for chloroquine-resistant asexual blood stage of Plasmodium falciparum K1 to IC50 for chloroquine-sensitive asexual blood stage of Plasmodium falciparum NF54; assay type: functional
CHO = assay: Cytotoxicity against CHO cells measured after 48 hrs by MTT assay; assay type: cell-based; settings: Cricetulus griseus
[7] = system: Mycobacterium tuberculosis; assay: Antimycobacterial activity against Mycobacterium tuberculosis H37Rv after 7 days in presence of middlebrook 7H9/ADC medium by microplate alamar blue assay; assay type: functional; settings: 168 h
[8] = Selectivity index, ratio of IC50 for CHO cells to IC50 for chloroquine-sensitive asexual blood stage of Plasmodium falciparum NF54; assay type: toxicity; settings: hamster, read-out: Ratio IC50
Plasmodium berghei [9] = assay: Antimalarial activity against GFP-transfected Plasmodium berghei ANKA infected in mouse assessed as mean survival days at 50 mg/kg, po administered consecutively at 4, 24, 48 and 72 hrs post infection; assay type: functional
Hemozoin [10] = assay: Potency index, ratio of chloroquine IC50 to compound IC50 for inhibition of beta-hematin assessed as hemozoin formation
[11] = Selectivity index, ratio of IC50 for CHO cells to IC50 for chloroquine-resistant asexual blood stage of Plasmodium falciparum K1; assay type: toxicity; settings: hamster, read-out: Ratio IC50
Plasmodium berghei [12] = assay: Antimalarial activity against GFP-transfected Plasmodium berghei ANKA infected mouse assessed as reduction in parasitemia at 50 mg/kg, po consecutively at 4, 24, 48 and 72 hrs post infection by flow cytometry relative to control; assay type: functional
Hemozoin [13] = assay: Inhibition of beta-hematin formation assessed as reduction in hemozoin formation incubated for 16 hrs by NP40 detergent-mediated assay

With `C[C@H]1[C@H](OC(=O)CCC(=O)O)O[C@@H]2O[C@@]3(C)CC[C@H]4[C@H](C)CC[C@@H]1[C@@]24OO3` [ARTESUNATE] the IC50 (Plasmodium falciparum [1]) was 9.8 nM.

For `Cc1ccc2c(c1)nc(-c1ccccc1)n2CCCNc1ccnc2cc(Cl)ccc12`, the MIC90 [2] was 32.7 µM, the MIC90 [3] was 125 µM and the IC50 (Plasmodium falciparum [4]) was 457 nM. The MIC90 [5] was 31.2 µM, the Ratio IC50 [6] was 0.583 and the IC50 (CHO) was > 50000 nM. The MIC90 [7] was > 62.5 µM and the IC50 (Plasmodium falciparum [1]) was 784 nM.

In the case of `FC(F)(F)c1ccc2c(c1)nc(-c1ccccc1)n2CCCNc1ccnc2cc(Cl)ccc12`, the MIC90 [2] is reported as 15.8 µM, the MIC90 [3] is reported as 62.5 µM and the IC50 (Plasmodium falciparum [4]) is reported as 151 nM. For the same compound, the selectivity ratio [8] was 37.5, the MSD (Plasmodium berghei [9]) was 7 days and the Ratio IC50 (Hemozoin [10]) was 4. It also gave an MIC90 [5] of 15.6 µM, a Ratio IC50 [6] of 0.35 and a selectivity ratio [11] of 107. The inhibition in vivo at 50 mg/kg (Plasmodium berghei [12]) was 58%, the IC50 (CHO) was 16200 nM and the IC50 (Hemozoin [13]) was 16000 nM. The MIC90 [7] was 89.1 µM and the IC50 (Plasmodium falciparum [1]) was 431 nM.

In the case of `N#Cc1ccc2c(c1)nc(-c1ccccc1)n2CCCNc1ccnc2cc(Cl)ccc12`, the MIC90 [2] is reported as > 125 µM, the MIC90 [3] is reported as > 125 µM and the IC50 (Plasmodium falciparum [4]) is reported as 179 nM. For the same compound, the selectivity ratio [8] was 39.9, the MIC90 [5] was 62.5 µM and the Ratio IC50 [6] was 0.183. The selectivity ratio [11] was 217, the IC50 (CHO) was 38900 nM and the MIC90 [7] was > 62.5 µM. It also gave an IC50 (Plasmodium falciparum [1]) of 975 nM.

Compound `CC[C@H]1CN2CCc3cc(OC)c(OC)cc3[C@@H]2C[C@@H]1C[C@H]1NCCc2cc(OC)c(OC)cc21` [EMETINE] has an IC50 (CHO) of 16.2 nM.

`Clc1ccc2c(NCCCn3c(-c4ccccc4)nc4ccccc43)ccnc2c1` gave an MIC90 [2] of 50.6 µM, an MIC90 [3] of 125 µM and an IC50 (Plasmodium falciparum [4]) of 201 nM. For the same compound, the selectivity ratio [8] was 7.57, the MIC90 [5] was 62.5 µM and the Ratio IC50 [6] was 0.0362. It also gave a selectivity ratio [11] of 209, an IC50 (CHO) of 42000 nM and an MIC90 [7] of 38.8 µM. The IC50 (Plasmodium falciparum [1]) was 5550 nM.

`CCN(CC)CCCC(C)Nc1ccnc2cc(Cl)ccc12` (centres undefined) [CHLOROQUINE] gave an IC50 (Hemozoin [13]) of 74000 nM.

With `CO[C@H]1/C=C/O[C@@]2(C)Oc3c(C)c(O)c4c(O)c(c(/C=N/N5CCN(C)CC5)c(O)c4c3C2=O)NC(=O)/C(C)=C\C=C\[C@H](C)[C@H](O)[C@@H](C)[C@@H](O)[C@@H](C)[C@H](OC(C)=O)[C@@H]1C` [RIFAMPIN] the MIC90 [2] was 0.0217 µM, the MIC90 [3] was 0.018 µM and the MIC90 [5] was 0.018 µM. The MIC90 [7] was 0.0156 µM.

In the case of `CS(=O)(=O)c1ccc2c(c1)nc(-c1ccccc1)n2CCCNc1ccnc2cc(Cl)ccc12`, the MIC90 [2] is reported as > 125 µM, the MIC90 [3] is reported as > 125 µM and the IC50 (Plasmodium falciparum [4]) is reported as 1830 nM. For the same compound, the selectivity ratio [8] was 73.2, the MIC90 [5] was 125 µM and the Ratio IC50 [6] was 3.28. The selectivity ratio [11] was 22.4, the IC50 (CHO) was 40900 nM and the MIC90 [7] was > 62.5 µM. It also gave an IC50 (Plasmodium falciparum [1]) of 559 nM.
